Consider seven compounds from patent US7217682B2, “Cyclopropanecarboxylic acid esters and pest controllers containing the same” (Sumitomo Chemical Company, Limited, priority 2001, dated 2007).

The structures appear in SMILES notation.

The assay relates to Adult houseflies. The assay can be described thus: Knock-down test on adult houseflies, oil solution sprayed into a cubic chamber. It counts as in vivo. Conditions: 0.7 ml of 0.025% oil solution sprayed in 70 cm cubic chamber; 5 male and 5 female adult houseflies; counted for 10 minutes; average of two repeats. An excerpt:
A solution of 0.025 part of Present Compound 1 to 6 dissolved with 10 parts of dichloromethane was mixed with […] parts of deodorized kerosene to give a 0.025% oil solution.
Adult houseflies (5 males and 5 females) were left in a cubic chamber (70 cm at side). Seven-tenths (0.7) ml of the 0.025% oil solution of Present Compound 1 to 6 prepared above was sprayed with a spray gun at a pressure of 8.8×10^4 Pa from a small window on the side of the chamber. Then, the number of the knocked-down insects was counted at times for 10 minutes. The time for knocking down half of the tested insects (KT50) was calculated from the result.
Furthermore, the test was similarly done by using (4-methoxymethyl-2,3,5,6-tetrafluoro)phenylmethyl [1R[1α, 3β(Z)]]-2,2-dimethyl-3-(2-fluoro-3-methoxy-3-oxopropenyl)cyclopropanecarboxylate (hereinafter, referred to as Comparative Compound):
[drawing 12] described in GB patent publication 2,268,740 as a comparative compound. The tests were done twice repeat, and the KT50 values were calculated from the averages.
On to `COCc1c(F)c(F)c(COC(=O)C2C(/C=C(\C#N)C(=O)OC(C)(C)C)C2(C)C)c(F)c1F` (stereo not shown) [Present Compound 6, 4-methoxymethyl-2,3,5,6-tetrafluorobenzyl 2,2-dimethyl-3-((E)-2-cyano-3-t-butyloxy-3-oxo-1-propenyl) cyclopropanecarboxylate], for which the “KT50 (time for knocking down half of the tested insects)” value (shortened to “KT50”) turned out to be 3.4 min. For `COCc1c(F)c(F)c(COC(=O)C2C(/C=C(\C#N)C(=O)OC)C2(C)C)c(F)c1F` (stereo not shown) [Present Compound 2, 4-methoxymethyl-2,3,5,6-tetrafluorobenzyl 2,2-dimethyl-3-((E)-2-cyano-3-methoxy-3-oxo-1-propenyl) cyclopropanecarboxylate], the “KT50” value was found to be 1.9 min.

In the case of `COCc1c(F)c(F)c(COC(=O)C2C(/C=C(\F)C(=O)OC)C2(C)C)c(F)c1F` (stereo not drawn) [Comparative Compound, (4-methoxymethyl-2,3,5,6-tetrafluoro)phenylmethyl [1R[1α, 3β(Z)]]-2,2-dimethyl-3-(2-fluoro-3-methoxy-3-oxopropenyl)cyclopropanecarboxylate, reference compound], the “KT50” value is over 10 min. In the case of `CCOC(=O)/C(C#N)=C/C1C(C(=O)OCc2c(F)c(F)c(COC)c(F)c2F)C1(C)C` (stereo not shown) [Present Compound 1, 4-methoxymethyl-2,3,5,6-tetrafluorobenzyl 2,2-dimethyl-3-((E)-2-cyano-3-ethoxy-3-oxo-1-propenyl) cyclopropanecarboxylate], the “KT50” value turned out to be 1.5 min. As for `COCc1c(F)c(F)c(COC(=O)C2C(/C=C(\C#N)C(=O)OC(C)C)C2(C)C)c(F)c1F` (stereo not shown) [Present Compound 5, 4-methoxymethyl-2,3,5,6-tetrafluorobenzyl 2,2-dimethyl-3-((E)-2-cyano-3-isopropoxy-3-oxo-1-propenyl) cyclopropanecarboxylate], the “KT50” value turned out to be 1.5 min. Take `CCCOC(=O)/C(C#N)=C/C1C(C(=O)OCc2c(F)c(F)c(COC)c(F)c2F)C1(C)C` (stereo not shown) [Present Compound 3, 4-methoxymethyl-2,3,5,6-tetrafluorobenzyl 2,2-dimethyl-3-((E)-2-cyano-3-propoxy-3-oxo-1-propenyl) cyclopropanecarboxylate]: the “KT50” value came to 4.1 min. Consider `C=CCOC(=O)/C(C#N)=C/C1C(C(=O)OCc2c(F)c(F)c(COC)c(F)c2F)C1(C)C` (stereo not shown) [Present Compound 4, 4-methoxymethyl-2,3,5,6-tetrafluorobenzyl 2,2-dimethyl-3-((E)-2-cyano-3-allyloxy-3-oxo-1-propenyl) cyclopropanecarboxylate], for which the “KT50” value worked out at 4.3 min.
